From PMC3188562, “Hyperforin Inhibits Akt1 Kinase Activity and Promotes Caspase-Mediated Apoptosis Involving Bad and Noxa Activation in Human Myeloid Tumor Cells” (PLoS ONE, 2011)

Target: Akt1 (Homo sapiens, UniProt P31749)
Sequence (P31749 whole entry): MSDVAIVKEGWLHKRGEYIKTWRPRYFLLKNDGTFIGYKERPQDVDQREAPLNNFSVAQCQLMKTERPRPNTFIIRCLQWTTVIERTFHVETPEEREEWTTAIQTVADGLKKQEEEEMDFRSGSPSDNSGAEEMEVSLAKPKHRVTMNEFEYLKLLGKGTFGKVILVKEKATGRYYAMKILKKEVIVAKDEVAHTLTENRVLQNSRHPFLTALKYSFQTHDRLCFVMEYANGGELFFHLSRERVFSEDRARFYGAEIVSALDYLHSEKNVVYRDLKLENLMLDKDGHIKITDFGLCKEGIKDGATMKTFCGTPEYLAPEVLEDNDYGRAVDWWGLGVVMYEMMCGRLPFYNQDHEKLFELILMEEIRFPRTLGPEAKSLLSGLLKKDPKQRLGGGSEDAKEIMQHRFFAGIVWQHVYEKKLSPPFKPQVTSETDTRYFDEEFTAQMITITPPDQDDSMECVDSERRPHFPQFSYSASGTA

`CC(C)=CCCC1(C)C(CC=C(C)C)CC2(CC=C(C)C)C(=O)C(CC=C(C)C)=C(O)C1(C(=O)C(C)C)C2=O` (stereo not drawn) [HF, 5-hydroxy-6R-methyl-1R,3,7S-tris(3-methyl-2-butenyl)-5S-(2-methyl-1-oxopropyl)-6R-(4-methyl-3-pentenyl)-bicyclo[3.3.1]non-3-ene-2,9 dione] was tested, and the IC50 was 2500 nM.
